Measured values reported in patent publication US20240108634A1, “COMPOSITIONS AND METHODS FOR INHIBITING YAP” (The United States Government as represented by the …, priority 2021, published 2024).

Molecular target: T1, YAP-TEAD interaction (Homo sapiens, UniProt P46937)
T1 construct: expressed in transfected cells; host or cells: LN229
Test: Co-immunoprecipitation of myc-TEAD with HA-YAP from treated LN229 cells
Format: cell-based
Settings: LN229 GBM cells, 24 h
Procedure: FIGS. 1A-G show the identification of a YAP1-TEAD1 binding interface inhibitor. […] The Gal4 DBD was fused to residues 50-171 of human YAP1 and the Gal4 AD was fused to residues 194-411 of human TEAD1. These fusions were expressed in yeast containing reporters harboring Gal4 upstream activating sequences (UAS). […] Yeast expressing either p53-DBD and SV40 large T antigen-AD fusions or YAP1-DBD and TEAD1-AD fusions were plated on selective media. Compounds were pinned onto the plate surfaces by robotic transfer and subsequently examined for halo formation (indicated by red circles). Compounds inhibiting YAP1-TEAD1 mediated growth on selective media while having no effect on p53-T antigen mediated yeast growth were considered specific. Compounds which blocked the growth of both strains were considered nonspecific and were classified as having general antifungal properties. […] His-tagged YAP (amino acids 50-171 of Accession No. NP_006097) was used in a GST pull-down assay using GST-TEAD (amino acids 194-411 of Accession No. NP_068780) immobilized on glutathione resin. Pull-down products were analyzed by SDS-PAGE and silver staining. […] Cells treated with antimycin A are shown as a negative control. […] Raw binding sensorgrams obtained at each concentration were fitted to a 1:1 binding model and Kon, Koff and KD were calculated by simultaneous non-linear regression analyses.
Protein and mRNA analyses, immunoprecipitation, in vitro bead-coupled inhibitor binding assays and HPLC analyses. […] Antigen-antibody complexes were detected using appropriate horseradish peroxidase-conjugated secondary antibodies (GE Healthcare) and enhanced chemiluminescence (Amersham ECL Prime). […] For quantitative RT-PCR, extraction of RNA was performed using Trizol® (Life Technologies). Total RNA was then quantified and integrity assessed using an Agilent 2100 Bioanalyzer (Agilent Technology). […] SYBR® Green quantitative PCR (Millipore Sigma) was performed in triplicate in 96-well optical plates on an ABI Prism 7000 Sequence Detection System (Life Technologies) according to the manufacturer's instructions. […]

T1 sequence (P46937 whole entry): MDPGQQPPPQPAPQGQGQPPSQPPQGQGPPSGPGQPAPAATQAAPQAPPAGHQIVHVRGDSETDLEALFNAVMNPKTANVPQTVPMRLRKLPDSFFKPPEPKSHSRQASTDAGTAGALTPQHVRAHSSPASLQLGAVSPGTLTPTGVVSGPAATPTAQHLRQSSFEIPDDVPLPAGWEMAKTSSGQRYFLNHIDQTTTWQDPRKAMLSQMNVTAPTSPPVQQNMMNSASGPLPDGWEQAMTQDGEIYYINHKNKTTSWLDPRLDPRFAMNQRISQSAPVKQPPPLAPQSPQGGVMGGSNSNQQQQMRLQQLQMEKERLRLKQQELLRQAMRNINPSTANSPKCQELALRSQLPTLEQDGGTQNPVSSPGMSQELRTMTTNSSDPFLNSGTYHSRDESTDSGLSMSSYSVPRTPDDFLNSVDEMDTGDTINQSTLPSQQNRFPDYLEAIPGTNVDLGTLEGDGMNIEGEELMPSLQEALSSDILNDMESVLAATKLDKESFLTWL

COc1ccc(-c2cc(-c3ccccc3)nc3c2CC(=O)Nc2ccccc2-3)cc1OC [NSC682769]
Association of YAP1 with TEAD1 in YAP1 immunoprecipitates: blocked the association of YAP1 with TEAD1
